According to patent publication US7125995B2, “Substituted amidoalkyl uracils and their use as inhibitors of the poly(adp-ribose) synthetase (PARS)” (Bayer Aktiengesellschaft, priority 2000, dated 2006):
Like-named read-outs stand apart in the source and are kept apart here.

Legend:
[1] = system: MHEC5-T cells; experiment: Cell protection assay (in vitro), H2O2-induced cell death, Alamar blue; type: cell-based; settings: 3 mM H2O2, 5 hours
Experimental: In accordance with a method described by Bowes [Bowes et al., Br. J. Pharmacol., 124, 1760–1766 (1998)], the ability of PARS inhibitors to protect cells against cell death induced by incubation with H2O2 is examined in a cell protection assay. Incubation of endothelial cells with H2O2 results in the generation of DNA strand breaks which in turn activate PARS, resulting in a drastic energy decrease in the cells and in cell death. Living cells are quantified by a fluorimetric redox indicator (Alamar blue), which is converted in the electron transport system of the mitochondria.
Specifically, 7500 MHEC5-T cells/well (DSM ACC 336; German collection of microorganisms and cell cultures) are sown in 4 replications on a 96-well plate. After 24 hours, the cells are incubated with 3 mM aqueous H2O2 solution and differing concentrations of the substances in the presence of 6% by volume of Alamar blue solution in the medium at 37° C. for 5 hours. The reference substance used is 10 μM 1,5-dihydroxyisoquinoline (DHCH) solution. After the incubation, the fluorescence is measured at an excitation wavelength of 530–560 nm and an emission wavelength of 590 nm. The percentage for the cell protection is calculated as the difference between the living cells treated only with H2O2 and the cells treated with H2O2 and PARS inhibitors. The internal standard used is 10 μM DHCH, which is defined as 100% protection. The results obtained for the other substances are compared to this value.
The EC50 values indicate the concentration at which 50% of maximum cell protection is reached, maximum protection by 10 μM DHCH being defined as 100%.

[2] = target: T1, human PARS enzyme (Homo sapiens, UniProt P09874); experiment: PARS inhibition test (in vitro); type: biochemical; settings: recombinant human PARS, [14C]-NAD+, 10 min room temperature
T1 construct: made in house; host or cells: baculovirus expression system (Bac-To-Bac, Life Technologies)
T1 sequence (P09874 whole entry): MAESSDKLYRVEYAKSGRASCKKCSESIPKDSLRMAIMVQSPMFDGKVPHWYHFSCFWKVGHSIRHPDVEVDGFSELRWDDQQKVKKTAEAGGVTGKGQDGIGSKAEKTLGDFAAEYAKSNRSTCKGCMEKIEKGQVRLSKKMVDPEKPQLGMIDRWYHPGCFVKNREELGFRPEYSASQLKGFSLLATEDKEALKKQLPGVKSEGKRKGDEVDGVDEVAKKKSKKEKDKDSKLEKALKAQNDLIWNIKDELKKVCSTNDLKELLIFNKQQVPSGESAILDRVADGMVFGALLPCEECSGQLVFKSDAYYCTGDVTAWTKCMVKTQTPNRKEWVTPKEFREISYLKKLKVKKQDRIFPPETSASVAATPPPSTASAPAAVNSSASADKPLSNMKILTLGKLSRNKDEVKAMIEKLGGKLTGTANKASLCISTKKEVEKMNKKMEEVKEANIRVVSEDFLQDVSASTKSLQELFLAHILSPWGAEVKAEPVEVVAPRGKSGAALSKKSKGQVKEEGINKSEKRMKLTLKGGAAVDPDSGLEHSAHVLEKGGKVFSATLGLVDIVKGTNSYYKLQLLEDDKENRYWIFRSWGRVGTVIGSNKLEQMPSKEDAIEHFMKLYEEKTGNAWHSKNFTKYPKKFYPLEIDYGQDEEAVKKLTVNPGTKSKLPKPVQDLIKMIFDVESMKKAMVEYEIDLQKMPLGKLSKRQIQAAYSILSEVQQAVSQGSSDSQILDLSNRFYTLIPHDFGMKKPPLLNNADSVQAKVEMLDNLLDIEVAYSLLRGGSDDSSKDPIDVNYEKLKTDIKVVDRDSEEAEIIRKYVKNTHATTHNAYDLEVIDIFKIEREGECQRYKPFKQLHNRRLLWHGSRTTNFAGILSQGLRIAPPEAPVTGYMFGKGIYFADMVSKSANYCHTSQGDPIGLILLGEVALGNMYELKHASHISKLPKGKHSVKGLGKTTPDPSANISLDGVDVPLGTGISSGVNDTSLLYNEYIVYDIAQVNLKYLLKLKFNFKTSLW
Experimental: To this end, recombinantly expressed (Bac-To-Bac, Baculo virus expression system; Instruction Manual; Life Technologies) human PARS enzyme is activated in a buffer which contains radioactively labelled [^14C]—NAD^+. The poly(ADP-ribose) units that are synthesized are precipitated using trichloroacetic acid, and the proportion of labelled protein is determined by scintillation measurements. Incubation of PARS with inhibitors leads to a decrease in the proportion of labelled protein and thus to a reduced radioactivity.
• Buffer: 100 mM 2-amino-2-hydroxymethyl-1,3-propanediol (tris)-HCl, pH 7.4 • 10 mM MgCl2 • 1 mM dithiothreitol (DTT) • Tris-HCl and MgCl2 are dissolved in water, DTT is added from an aqueous 100 mM stock solution (stored at −20° C.) and the pH is adjusted with concentrated HCl to 7.4. • DNA: 1 mg/ml of calf thymus DNA • 1 mg/ml of calf thymus DNA (from Sigma) is dissolved in water and sonicated to induce strand breaks. 500 μl aliquots were stored at −20° C. • Histones: 10 mg/ml of type IIA histones, calf thymus • 10 mg/ml of lyophilized histones (from Sigma) are dissolved in water. • 500 μl aliquots are stored at −20° C. • NAD^+ Mix: 2 mM NAD^+ in buffer, • NAD^+ (from Sigma) solutions are prepared freshly before each test. • In each case 3 μl of labelled [^14C]—NAD^+ (2.8 kBq, from Amersham) are added to 7 μl of cold NAD^+ solution. • Trichloroacetic acid (TCA): TCA is stored at 4° C. as a 10% strength by weight solution. • PARS: Human PARS protein is expressed recombinantly in the baculovirus system (Bac-To-Bac, Baculo virus expression system; Instruction Manual; Life Technologies) and purified. 500 μl aliquots are stored at −80° C. Methods
The compounds to be tested are dissolved in DMSO (dimethyl sulphoxide) at a concentration of 10 mM. The assay is carried out in deep 96-well plates. […] The mixture is incubated at room temperature for 10 min, and 1 ml of ice-cold TCA solution is then added, and the precipitated labelled proteins are sucked onto a filter paper (printed filter mat A; from Wallac) using a harvester (from Scatron). The filter is dried, sealed together with a scintillation sheet (Multilex A; from Wallac) and measured in a β counter for 1 min per well.
In addition to the substances described in this application, the known PARS inhibitor 1,5-dihydroxyisoquinoline (DHCH) is tested as reference substance. The results of the test are stated as IC50 values for the inhibition of PARS.

[3] = 37° C., 50% of maximum cell protection, 10 μM DHCH defined as 100%, read-out: Cell protection (in vitro) EC50

| IC50 [2] | Compound | EC50 [1, 3] | EC50 ([1]; reference substance, read-out: Cell protection EC50 value) |
| --- | --- | --- | --- |
|  | O=C(CCn1c2c(c(=O)[nH]c1=O)CSCC2)NCC(=O)c1ccc(-c2ccc3c(c2)OCO3)cc1 [Example 12] | 95 nM |  |
|  | O=C(CCn1c2c(c(=O)[nH]c1=O)CCCC2)NCC(=O)N1CCN(c2ncc(F)cn2)CC1 [Example 40] | 90 nM |  |
| 80 nM | O=C(CCn1c2c(c(=O)[nH]c1=O)CCCC2)NCC(=O)N1CCN(c2ccccc2C(F)(F)F)CC1 [Example 54] |  |  |
|  | O=C(CCn1c2c(c(=O)[nH]c1=O)CCCC2)NCC(=O)N1CCN(c2ccc([N+](=O)[O-])cc2)CC1 [Example 32] | 200 nM |  |
| 15 nM | Cc1csc2c(N3CCN(C(=O)CNC(=O)CCn4c5c(c(=O)[nH]c4=O)CSCC5)CC3)ncnc12 [Example 15] | 50 nM |  |
|  | O=C(CCn1c2c(c(=O)[nH]c1=O)CSCC2)NCC(=O)N1CCN(c2ncc(Br)cn2)CC1 [Example 24] | 20 nM |  |
|  | Oc1cccc2c(O)nccc12 [DHCH, 1,5-dihydroxyisoquinoline, reference compound] |  | 2000 nM |
| 12 nM | O=C(CCn1c2c(c(=O)[nH]c1=O)CCCC2)NCC(=O)c1ccc(-c2ccncc2)cc1 [Example 7] | 90 nM |  |
|  | O=C(CCn1c2c(c(=O)[nH]c1=O)CSCC2)NCC(=O)c1ccc(-c2cnccn2)cc1 [Example 5, 3-(2,4-Dioxo-3,4,7,8-tetrahydro-2H-thiopyrano [4,3-d]pyrimidin-1(5H)-yl)-N-(2-oxo-2-[4-(2-pyrazinyl)phenyl]ethyl)propanecarboxamide] | 70 nM |  |
|  | O=C(CCn1c2c(c(=O)[nH]c1=O)CSCC2)NCC(=O)N1CCN(c2ccccc2)CC1 [Example 30] | 100 nM |  |
| 8.5 nM | O=C(CCn1c2c(c(=O)[nH]c1=O)CSCC2)NCC(=O)c1ccc2ccccc2c1 [Example 6] |  |  |
